Laboratory results from US20160113932A1, “TREATMENT OF CANCERS USING PI3 KINASE ISOFORM MODULATORS” (INFINITY PHARMACEUTICALS, INC., priority 2013, published 2016).
“And” between values parts separate entries of the source, which are not always exact repeats. Equal values may be shown once. “Also recorded” adds a separate entry of the source.

Key:
[1] = tested on: Loucy; assay: T-ALL growth inhibition; assay type: cell-based, human; conditions: Homo sapiens; PTEN deficient Loucy cell line
Method: To further explore the individual contributions of the varying PI3K isoforms on T-ALL cell growth, Loucy ALL cells were treated with doxorubicin and various PI3K inhibitors as shown in FIG. 32 at various concentrations as denoted in the figure.

[2] = tested on: CD63 expression on the surface of basophils; assay: Basophil activation assay in whole blood of oncology patients (PI3K inhibition); assay type: in vivo, human; conditions: from PK/PD in patients
Method: (§1) PK and PD markers were evaluated after the first dose (e.g., 8 mg BID) and at steady state. PD activity (PI3K inhibition) in whole blood was evaluated using a basophil activation assay which measured reduction in CD63 expression on the surface of basophils following ex vivo stimulation.

[3] = Phase 1 study in hematologic malignancies: pharmacokinetics, steady state plasma concentrations; assay type: in vivo, human
Method: as §1

[4] = Absolute bioavailability / pharmacokinetics in cynomolgus monkeys; assay type: in vivo; conditions: Monkey, PO, 5 mg/kg, suspension
[5] = Phase 1 study in healthy subjects: pharmacokinetics (single dose, multiple dose, food effect, DDI); assay type: in vivo, human; conditions: for AUC(0-24): mean (% CV)
[6] = tested on: hemodynamic and electrocardiographic parameters; assay: Cardiovascular study in instrumented cynomolgus monkey; assay type: in vivo; conditions: male cynomolgus monkeys
From the text: Four non-naive, male monkeys implanted with radiotelemetry transmitters were utilized during the conduct of this study.

[7] = Absolute bioavailability / pharmacokinetics in BALB/c mice; assay type: in vivo; conditions: Mouse, PO, 10 mg/kg, suspension, calculated using AUC0-last
[8] = target: hERG channel current (Homo sapiens, UniProt Q12809); assay: In vitro hERG assay; conditions: hERG IC50 fit
[9] = In vitro genetic toxicity studies
[10] = Phase 1 study in healthy subjects: safety and tolerability; assay type: in vivo
Method: Serial ECGs were performed at multiple time points after dosing in all study groups.
In addition, a rapid response was observed, assessed as reduction in CD63^+ expression on CCR3^+ basophils in an ex vivo anti-FcεR1 activation assay (FIG. 1-3). […] CD63^+ expression returned to baseline as plasma drug concentrations declined. […] The most common non-procedural AEs occurring in ≧2 subjects were headache (8% vs. 25% PLB), myalgia (6% vs. 8% PLB), and nasopharyngitis (6% vs. 0% PLB). […] No clinical significant findings in safety lab studies of ECGs were observed.

[11] = In vivo rat micronucleus assay
[12] = Plasma protein binding in vitro, monkey; assay type: in vitro ADME; conditions: all concentrations tested
[13] = tested on: PI3K-δ specific basophil activation; assay: Anti-fCER1 BAT: PI3K-δ specific basophil activation in human whole blood; assay type: cell-based; conditions: read-out: Anti-fCER1 BAT (delta) EC50
[14] = tested on: migration of CLL cells; assay: Chemotaxis assay of CLL cells; assay type: cell-based, human; conditions: range 2-42%; n=8
From the text: (FIGS. 35 and 36). […] In addition, this direct inhibitory effect on CLL cells in the lymph nodes could lead to rapid and prolonged responses in cancer patients.

[15] = tested on: Human T-cell; assay: Human T-cell proliferation; assay type: cell-based
[16] = tested on: U2932; assay: DLBCL cellular growth inhibition, 72 hour CTG assay; assay type: cell-based; conditions: Homo sapiens
[17] = Tissue distribution of radiolabelled Compound 292 in rat; assay type: in vivo
[18] = multiple doses for 2 weeks (n=36)

Chain of hERG channel current (Q12809 whole entry): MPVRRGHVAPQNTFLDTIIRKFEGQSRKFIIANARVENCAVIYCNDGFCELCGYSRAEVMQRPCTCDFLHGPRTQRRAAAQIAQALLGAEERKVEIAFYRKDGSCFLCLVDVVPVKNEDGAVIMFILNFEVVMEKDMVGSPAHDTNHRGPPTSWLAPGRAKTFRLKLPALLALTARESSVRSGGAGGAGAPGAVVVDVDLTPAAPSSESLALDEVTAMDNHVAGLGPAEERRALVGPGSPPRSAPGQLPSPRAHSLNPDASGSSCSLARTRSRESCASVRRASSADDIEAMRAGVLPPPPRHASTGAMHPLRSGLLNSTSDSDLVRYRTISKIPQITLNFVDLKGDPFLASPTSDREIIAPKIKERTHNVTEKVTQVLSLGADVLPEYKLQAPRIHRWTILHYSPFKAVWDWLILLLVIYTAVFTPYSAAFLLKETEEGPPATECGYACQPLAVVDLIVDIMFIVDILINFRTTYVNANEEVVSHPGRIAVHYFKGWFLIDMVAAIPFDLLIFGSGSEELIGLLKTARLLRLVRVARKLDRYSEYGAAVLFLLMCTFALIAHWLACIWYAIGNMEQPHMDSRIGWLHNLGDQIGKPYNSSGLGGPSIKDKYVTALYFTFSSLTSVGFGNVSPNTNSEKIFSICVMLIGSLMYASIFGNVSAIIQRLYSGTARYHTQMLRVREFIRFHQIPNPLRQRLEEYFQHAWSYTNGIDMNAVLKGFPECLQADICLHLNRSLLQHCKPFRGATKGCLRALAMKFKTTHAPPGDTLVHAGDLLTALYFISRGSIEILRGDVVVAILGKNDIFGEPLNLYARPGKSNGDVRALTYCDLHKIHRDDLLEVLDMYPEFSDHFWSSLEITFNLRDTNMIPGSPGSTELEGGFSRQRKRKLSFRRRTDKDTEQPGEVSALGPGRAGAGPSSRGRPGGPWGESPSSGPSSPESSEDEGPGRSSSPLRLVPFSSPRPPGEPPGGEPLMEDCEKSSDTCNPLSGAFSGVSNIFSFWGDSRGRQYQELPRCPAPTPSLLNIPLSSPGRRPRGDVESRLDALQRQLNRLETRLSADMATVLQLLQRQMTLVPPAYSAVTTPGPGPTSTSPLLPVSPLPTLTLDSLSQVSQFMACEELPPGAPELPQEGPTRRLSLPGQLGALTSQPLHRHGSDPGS

C[C@H](Nc1ncnc2[nH]cnc12)c1cc2cccc(Cl)c2c(=O)n1-c1ccccc1 [Compound 292]
IC50 [1]: 245 nM
dose achieving complete inhibition of PI3K-δ [2]: ≥ 15 mg BID
doses that increasingly suppress PI3K-γ [2]: ≥ 25 mg BID
mean predose steady state plasma concentration ([3]; 25 mg BID, C2D1): 390 ng/mL
dose dependence of plasma Cmax and AUC ([3]; patients with hematologic malignancies, BID dosing): dose-proportional increases; also recorded: dose-proportional PK; also recorded: linear PK profile; also recorded: increases proportionally with doses
time of maximum plasma concentration post-dosing ([3]; steady state C2D1, 25 mg and 75 mg BID): about 1 hour
Foral [4]: 40%
increase of Cmax in the presence of ketoconazole ([5]; DDI portion, 200 mg ql2h ketoconazole): approximately 66%
accumulation ([5]; following 14 days of Q12 h oral administration): less than 2 fold
dose dependence of exposure (Cmax and AUC) ([5]; healthy subjects, across the dose ranges evaluated): increased proportionally to dose; also recorded: dose-proportional pharmacokinetics
AUC(0-24) ([5]; single dose 1 mg): 149 (67) ng*hr/mL
AUC(0-24) ([5]; single dose 2 mg): 289 (43) ng*hr/mL
AUC(0-24) ([5]; single dose 5 mg): 733 (5) ng*hr/mL
AUC(0-24) ([5]; single dose 10 mg): 891 (14) ng*hr/mL
AUC(0-24) ([5]; single dose 20 mg): 2193 (16) ng*hr/mL
AUC(0-24) ([5]; single dose 30 mg): 3263 (38) ng*hr/mL
effects on hemodynamic or electrocardiographic parameters ([6]; single oral dose of 5, 30, and 150 mg/kg): No Compound 292-related effects
waveform abnormalities or arrhythmias ([6]; up to 150 mg/kg): no waveform abnormalities or arrhythmias
Foral [7]: 7% and 7i %
Hill coefficient [8]: 1.3
genetic toxicity [9]: no genetic toxicity
IgE ([10]; healthy subjects): No increases in IgE
QTcF at any assessment ([10]; healthy subjects, serial ECGs): ≤ 500 ms
tolerability ([10]; healthy subjects, single doses up to 30 mg, multiple doses up to 10 mg daily for 14 days): well tolerated; also recorded: well-tolerated
headache, subjects [10, 18]: 8%
myalgia, subjects [10, 18]: 6%
nasopharyngitis, subjects [10, 18]: 6%
adverse effect in micronucleus assay [11]: no direct adverse effect
percent free in plasma compared with human plasma [12]: consistently higher
EC50 [13]: 10 to 100 nM
reduction in migration of CLL cells, % control reduction, median [14]: 23%
EC50 [15]: 5 to 10 nM
IC50 [16]: > 50000 nM
distribution into rat tissues [17]: rapid and extensive
elimination of radiolabelled Compound 292 from tissues ([17]; majority of tissues without quantifiable radioactivity at 24 hr): rapid
